Experimental data from ChEMBL document CHEMBL4342418, “1,2,3-Triazole-containing hybrids as potential anticancer agents: Current developments, action mechanisms and structure-activity relationships” (Eur J Med Chem, 2019).

Legend:
[1] = system: K562-Lucena 1; assay: Antiproliferative activity against human K562-Lucena 1 cells assessed as reduction in cell viability after 24 hrs by MTT assay; type: functional, cell-based; conditions: K562-Lucena 1, 24 h
[2] = system: HL-60; assay: Antiproliferative activity against human HL60 cells assessed as reduction in cell viability after 24 hrs by MTT assay; type: functional, cell-based; conditions: HL-60, 24 h
[3] = system: PBMC; assay: Cytotoxicity against human PBMC cells assessed as reduction in cell viability after 24 hrs by MTT assay; type: cell-based
[4] = system: K562; assay: Antiproliferative activity against human K562 cells assessed as reduction in cell viability after 24 hrs by MTT assay; type: functional, cell-based; conditions: K562, 24 h
[5] = system: A549; assay: cells; type: functional, cell-based; conditions: Homo sapiens
Description: Antiproliferative activity against human A549 cells by MTT assay

[6] = system: NCI-H460; assay: Antiproliferative activity against human H460 cells by MTT assay; type: functional, cell-based
[7] = system: MCF7; assay: cells; type: functional, cell-based; conditions: Homo sapiens
Description: Antiproliferative activity against human MCF7 cells by MTT assay

[8] = system: K562; assay: Antiproliferative activity against human K562 cells by MTT assay; type: functional, cell-based
[9] = system: HepG2; assay: Antiproliferative activity against human HepG2 cells by MTT assay; type: functional, cell-based
[10] = system: LoVo; assay: Antiproliferative activity against human LoVo cells by MTT assay; type: functional, cell-based
[11] = system: HCT-116; assay: Antiproliferative activity against human HCT116 cells by MTT assay; type: functional, cell-based
[12] = Antiproliferative activity against human […] cells assessed as reduction in cell viability after 72 hrs by MTT assay; type: functional, cell-based
[13] = system: MCF7; assay: Antiproliferative activity against human MCF7 cells assessed as reduction in cell viability after 72 hrs by MTT assay; type: functional, cell-based; conditions: MCF7, 72 h
[14] = system: A2780; assay: Antiproliferative activity against human A2780 cells assessed as reduction in cell viability after 72 hrs by MTT assay; type: functional, cell-based; conditions: A2780, 72 h
[15] = system: HeLa; assay: Antiproliferative activity against human HeLa cells assessed as reduction in cell viability after 72 hrs by MTT assay; type: functional, cell-based
[16] = system: A-431; assay: Antiproliferative activity against human A431 cells assessed as reduction in cell viability after 72 hrs by MTT assay; type: functional, cell-based; conditions: A-431, 72 h
[17] = system: T47D; assay: Antiproliferative activity against human T47D cells assessed as reduction in cell viability after 72 hrs by MTT assay; type: functional, cell-based
[18] = system: MDA-MB-231; assay: Antiproliferative activity against human MDA-MB-231 cells assessed as reduction in cell viability after 72 hrs by MTT assay; type: functional, cell-based; conditions: MDA-MB-231, 72 h, read-out: IC50
[19] = system: HepG2; assay: Antiproliferative activity against human HepG2 cells assessed as reduction in cell viability after 24 hrs by MTT assay; type: functional, cell-based; conditions: HepG2, 24 h
[20] = system: PC-3; assay: Antiproliferative activity against human PC3 cells assessed as reduction in cell viability after 24 hrs by MTT assay; type: functional, cell-based; conditions: PC-3, 24 h
[21] = system: MCF7; assay: Antiproliferative activity against human MCF7 cells assessed as reduction in cell viability after 24 hrs by MTT assay; type: functional, cell-based; conditions: MCF7, 24 h
[22] = system: HCT-116; assay: Antiproliferative activity against human HCT116 cells assessed as reduction in cell viability after 24 hrs by MTT assay; type: functional, cell-based; conditions: HCT-116, 24 h
[23] = Cytotoxicity against human HEK cells assessed as reduction in cell viability after 24 hrs by MTT assay; type: cell-based; conditions: HEK293, 24 h
[24] = system: Erythrocyte; assay: Cytotoxicity against human RBC cells assessed as reduction in cell viability after 24 hrs by MTT assay; type: cell-based
[25] = system: L1210; assay: Antiproliferative activity against mouse L1210 cells assessed as reduction in cell viability after 3 days by coulter counting method; type: functional, cell-based; conditions: L1210, 72 h
[26] = Antiproliferative activity against BAEC cells assessed as reduction in cell viability after 3 days by coulter counting method; type: functional, cell-based; conditions: Bos taurus, 72 h
[27] = system: NCI-H23; assay: cells; type: functional, cell-based; conditions: Homo sapiens, NCI-H23, 48 h
Description: Antiproliferative activity against human NCI-H23 cells assessed as reduction in cell viability after 48 hrs by MTT assay

[28] = system: PC-3; assay: cells; type: functional, cell-based; conditions: Homo sapiens, PC-3, 48 h
Description: Antiproliferative activity against human PC3 cells assessed as reduction in cell viability after 48 hrs by MTT assay

[29] = system: ASPC1; assay: cells; type: functional, cell-based; conditions: Homo sapiens, ASPC1, 48 h
Description: Antiproliferative activity against human Aspc-1 cells assessed as reduction in cell viability after 48 hrs by MTT assay

[30] = system: SW-620; assay: cells; type: functional, cell-based; conditions: Homo sapiens, SW-620, 48 h
Description: Antiproliferative activity against human SW620 cells assessed as reduction in cell viability after 48 hrs by MTT assay

[31] = system: DU-145; assay: Antiproliferative activity against human DU145 cells assessed as reduction in cell viability after 48 hrs by MTT assay; type: functional, cell-based; conditions: DU-145, 48 h
[32] = system: HeLa; assay: Antiproliferative activity against human HeLa cells assessed as reduction in cell viability after 48 hrs by MTT assay; type: functional, cell-based
[33] = system: SK-OV-3; assay: Antiproliferative activity against human SKOV3 cells assessed as reduction in cell viability after 48 hrs by MTT assay; type: functional, cell-based; conditions: SK-OV-3, 48 h
[34] = system: A549; assay: Antiproliferative activity against human A549 cells assessed as reduction in cell viability after 72 hrs by MTT assay; type: functional, cell-based; conditions: A549, 72 h
[35] = system: U-251; assay: Antiproliferative activity against human U251 cells assessed as reduction in cell viability after 72 hrs by MTT assay; type: functional, cell-based; conditions: U-251, 72 h
[36] = system: HepG2; assay: Antiproliferative activity against human HepG2 cells assessed as reduction in cell viability after 72 hrs by MTT assay; type: functional, cell-based; conditions: HepG2, 72 h
[37] = system: HCT-116; assay: Antiproliferative activity against human HCT116 cells assessed as reduction in cell viability after 72 hrs by MTT assay; type: functional, cell-based; conditions: HCT-116, 72 h
[38] = system: A549/TR; assay: Antiproliferative activity against human A549/TR cells assessed as reduction in cell viability after 72 hrs by MTT assay; type: functional, cell-based
[39] = system: A549/CDDP; assay: Antiproliferative activity against human A549/CDDP cells assessed as reduction in cell viability after 72 hrs by MTT assay; type: functional, cell-based
[40] = system: PC-3; assay: Antiproliferative activity against human PC3 cells by MTT assay; type: functional, cell-based
[41] = system: NIH3T3; assay: Antiproliferative activity against mouse NIH/3T3 cells by MTT assay; type: functional, cell-based
[42] = system: HeLa; assay: Antiproliferative activity against human HeLa cells by MTT assay; type: functional, cell-based
[43] = system: DU-145; assay: Antiproliferative activity against human DU145 cells by MTT assay; type: functional, cell-based
[44] = Antiproliferative activity against human GBM95 cells assessed as reduction in cell viability after 72 hrs by MTT assay; type: functional, cell-based
[45] = Antiproliferative activity against human GBM2 cells assessed as reduction in cell viability after 72 hrs by MTT assay; type: functional, cell-based; conditions: GBM2, 72 h

In the case of `O=C1C=C(n2cc(-c3ccccc3)nn2)C(=O)c2ccccc21`, the IC50 [1] is reported as 14.3 to 99.2 µM, the IC50 [2] is reported as 14.3 to 99.2 µM and the IC50 [3] is reported as 14.3 to 99.2 µM. For the same compound, the IC50 [4] was 14.3 to 99.2 µM.

In the case of `COc1ccc(-c2cn(C3=CC(=O)c4ccccc4C3=O)nn2)cc1`, the IC50 [1] is reported as 14.3 to 99.2 µM, the IC50 [2] is reported as 14.3 to 99.2 µM and the IC50 [3] is reported as 14.3 to 99.2 µM. The IC50 [4] was 14.3 to 99.2 µM.

`COc1ccc2c(c1)OCC(=O)N2Cc1cn(Cc2ccccc2)nn1` showed an IC50 [5] of 10 µM and an IC50 [6] of 8 µM.

`COc1ccc2[nH]cc(Cn3cc(COc4ccc(/C=C/C(=O)NO)cc4OC)nn3)c2c1` gave an IC50 [7] of 3.57 to 6.21 µM, an IC50 [8] of 3.57 to 6.21 µM and an IC50 [9] of 3.57 to 6.21 µM. For the same compound, the IC50 [10] was 3.57 to 6.21 µM and the IC50 [11] was 3.57 to 6.21 µM.

`CC(C)(C)c1ccc(-c2cn([C@H]3C[C@H]4[C@@H]5CCc6cc(OCc7ccccc7)ccc6[C@H]5CC[C@@]4(C)[C@@H]3O)nn2)cc1` showed an IC50 [12] of 2.4 to 8.3 µM, an IC50 [13] of 2.4 to 8.3 µM and an IC50 [14] of 2.4 to 8.3 µM. The IC50 [15] was 2.4 to 8.3 µM, the IC50 [16] was 2.4 to 8.3 µM and the IC50 [17] was 2.4 to 8.3 µM. For the same compound, the IC50 [18] was 2.4 to 8.3 µM.

For `COc1cc2nc(Cl)nc(Nc3ccc(Cn4cc(-c5ccccc5)nn4)cc3)c2cc1OC`, the IC50 [19] was 20.7 to 68 µM, the IC50 [20] was 20.7 to 68 µM and the IC50 [21] was 20.7 to 68 µM. It also gave an IC50 [22] of 20.7 to 68 µM, an IC50 [3] of 37.4 µM and an IC50 [23] of 40.3 µM. For the same compound, the IC50 [24] was 45.6 µM.

`CS(=O)(=O)c1ccc(-c2cn(-c3cccc(-c4ccccn4)c3)nn2)cc1` gave an IC50 [25] of 100 µM and an IC50 [26] of 100 µM.

Compound `COc1ccc2c(c1)/C(=N\O)C(=O)N2Cc1cn(Cc2ccc(C(=O)NO)cc2)nn1` has an IC50 [27] of 1.4 to 2.62 µM, an IC50 [28] of 1.4 to 2.62 µM and an IC50 [29] of 1.4 to 2.62 µM. The IC50 [30] was 1.4 to 2.62 µM.

With `CS(=O)(=O)c1ccc(-c2cn(-c3ccc(Cl)c(-c4ccccn4)c3)nn2)c(Cl)c1` the IC50 [25] was 40 to 82 µM and the IC50 [26] was 40 to 82 µM.

With `CCc1ccc(-n2cc(CNC(=O)C(=O)c3c[nH]c4ccccc34)nn2)cc1` the IC50 [31] was 8.17 µM, the IC50 [32] was over 100 µM and the IC50 [33] was over 100 µM.

`Cc1ccc2c(c1)/C(=N\O)C(=O)N2Cc1cn(CCCC(=O)NO)nn1` gave an IC50 [27] of 0.49 to 0.76 µM, an IC50 [28] of 0.49 to 0.76 µM and an IC50 [29] of 0.49 to 0.76 µM. The IC50 [30] was 0.49 to 0.76 µM.

With `O=C(NCc1cn(-c2ccc(F)cc2)nn1)C(=O)c1c[nH]c2ccccc12` the IC50 [31] was 8.69 µM, the IC50 [32] was over 100 µM and the IC50 [33] was over 100 µM.

Compound `CCc1ccc(-c2cn([C@H]3C[C@H]4[C@@H]5CCc6cc(OCc7ccccc7)ccc6[C@H]5CC[C@@]4(C)[C@@H]3O)nn2)cc1` has an IC50 [12] of 2.4 to 8.3 µM, an IC50 [13] of 2.4 to 8.3 µM and an IC50 [14] of 2.4 to 8.3 µM. It also gave an IC50 [15] of 2.4 to 8.3 µM, an IC50 [16] of 2.4 to 8.3 µM and an IC50 [17] of 2.4 to 8.3 µM. For the same compound, the IC50 [18] was 2.4 to 8.3 µM.

Work on `C#Cc1cccc(Nc2ncnc3cc(OCCOC)c(OCCOC)cc23)c1` [ERLOTINIB] yielded an IC50 [19] of 11.6 to 26.9 µM, an IC50 [20] of 11.6 to 26.9 µM and an IC50 [21] of 11.6 to 26.9 µM. The IC50 [22] was 11.6 to 26.9 µM, the IC50 [3] was 20.5 µM and the IC50 [23] was 29.5 µM. It also gave an IC50 [24] of 16.2 µM.

Work on `CC(C)=CCC[C@]1(C)C=Cc2c(O)c3c(c(CC=C(C)C)c2O1)O[C@]12C(=C[C@@H]4C[C@H]1C(C)(C)O[C@@]2(C/C=C(/C)C(=O)O)C4=O)C3=O` [GAMBOGIC ACID] yielded an IC50 [34] of 0.29 to 4.67 µM, an IC50 [35] of 0.29 to 4.67 µM and an IC50 [36] of 0.29 to 4.67 µM. The IC50 [37] was 0.29 to 4.67 µM, the IC50 [38] was 0.29 to 4.67 µM and the IC50 [39] was 0.29 to 4.67 µM.

In the case of `COc1cc([C@@H]2c3cc4c(cc3[C@H](O)[C@H]3COC(=O)[C@H]23)OCO4)cc(OC)c1OC` [PODOFILOX], the IC50 [7] is reported as 3.06 to 34.4 µM, the IC50 [40] is reported as 3.06 to 34.4 µM and the IC50 [5] is reported as 3.06 to 34.4 µM. For the same compound, the IC50 [41] was 3.06 to 6.63 µM, the IC50 [9] was 3.06 to 6.63 µM and the IC50 [42] was 3.06 to 6.63 µM. It also gave an IC50 [43] of 3.06 to 6.63 µM.

`Cn1nnc2c(C(N)=O)ncn2c1=O` [TEMOZOLOMIDE] gave an IC50 [44] of 625 µM and an IC50 [45] of 1130 µM.

Compound `O=C(CCCCCCC(=O)Nc1ccccc1)NO` [VORINOSTAT] has an IC50 [8] of 4.95 to 7.11 µM, an IC50 [9] of 4.95 to 7.11 µM and an IC50 [10] of 4.95 to 7.11 µM. The IC50 [11] was 4.95 to 7.11 µM.
